Data set [1] relates to Activating transcription factor-3. As to the kind of experiment: Anti-ATF-3 immunofluorescence. The data set is classed as in vivo, mouse. The following applies: for Anti-ATF-3, change: SG-fed vs control. The procedure: Tissue-mounted slides were processed for fluorescence microscopy as follows: Sections were rinsed in coplin jars for 45 minutes at room temperature (RT) in three changes of PBS. Sections were then incubated at RT for 30 minutes in a blocking permeabilization solution made of 5% normal goat serum (NGS), 5% normal rabbit serum (NRS) or 5% BlokHen II (Ayes Labs, Inc., Tigard, Oreg.), 0.05% Triton X-100 and PBS. Subsequently, the blocking solution was tipped off and the slides were rinsed in PBS for 2 minutes. […]

For data set [2], the system named is male CD-1 mice. As to the kind of experiment: Leg extension reflex test, SG-fed mice. The data set is classed as in vivo, mouse. The source says: Five-month old male CD-1 mice (30.1-35.7 g, 7.5 cm-8.8 cm) were purchased from Charles River (Wilmington, Mass.). Adult mice were chosen to mimic the mean age of onset of ALS-PDC (Kurland, L. T. (1988a) Trends Neurosci. 11, 51-4; Kurland, L. T., et al. (1994) Amyotrophic lateral sclerosis-parkinsonism-dementia complex on Guam: epidemiologic and etiological perspectives. 109-131). Thirty mice for the SG study were randomly divided into 2 groups (14 control and 16 experimental animals). All animals were housed singly in a virus-free barrier facility in a room maintained at 22° C. under a 12 hour light/dark cycle. The mice were provided ad libitum access to food and water.
The synthetic SG was mixed with finely ground Purina Chow mouse pellets (Mouse Diet™, Purina) to create the experimental pellets with a SG content of 1000 μg per pellet. Dry materials were blended with a sterile silicon spatula. For every 5 g of standard feed, 2.5 mL of doubly-distilled water (dd)H2O was added and the dough was kneaded and round up into pellets. […] SG feeding was conducted daily for 15 weeks and mice were behaviorally monitored until sacrifice at 35 weeks (time point 1) or 52 weeks (time point 2).
Leg extension reflex test: The leg extension reflex test was used as a measure of motor neuron dysfunction (Barneoud et al., 1999). […] The leg extension reflex was measured three times per week in each animal. […]

The structures appear in SMILES notation. “Also recorded” adds a separate entry of the source. Marks after values point to notes of the source that are not given here.

With `CC[C@H](/C=C/[C@@H](C)[C@H]1CC[C@H]2[C@@H]3CC=C4C[C@@H](O[C@@H]5O[C@H](CO)[C@@H](O)[C@H](O)[C@H]5O)CC[C@]4(C)[C@H]3CC[C@]12C)C(C)C` [SG, Stigmasterol β-D-Glucopyranoside], in data set [1] (SG-fed group over time (35 to 52 wk)), the “Anti-ATF-3 immunoreactive cells over time, change” value is “Anti-ATF-3 immunoreactive cells (SG-fed group over time): −48%***”. The “Anti-ATF-3, change” value in data set [1] (Time-point 1 (35 wk)) is on record as “Anti-ATF-3: +242% ***”; in data set [1] (Time-point 2 (52 wk)), “Anti-ATF-3: +101%**”. Besides, in data set [2] (SG-fed vs control, Time-point 2 (52 wk)), the Leg extension entry is “Leg extension* (*p < 0.05)”. The “Leg extension reflex test performance (score 0-4)” value in data set [2] (SG-fed, duration of study) is “decreased; also recorded: steady decline in performance”.

(Values after patent US9573972B2, “Nurotoxic sterol glycosides” (priority 2008, dated 2017).)
